Patent publication US9849104B2 (Gemphire Therapuetics Inc., priority 2015, dated 2017)
Where two headings read alike, the source gives them in different places.

Key:
[1] = target: T1, CYP2D6 (Homo sapiens, UniProt P10635); assay: Inhibition of CYP2D6 (demethylation of dextromethorphan) in human liver microsomes; assay type: in vitro ADME; conditions: probe dextromethorphan (O-demethylation), 5 μM, read-out: inhibitory activity toward CYP2D6
T1 construct: Human livers, HLM141, HLM143, and HLM144 were selected from the University of Washington Human Liver Bank for this study; Microsomes were prepared; tissue University of Washington Human Liver Bank HLM141, HLM143, HLM144; host or cells: human liver microsomes
Method: (§1) Human livers, HLM141, HLM143, and HLM144 were selected from the University of Washington Human Liver Bank for this study. […] The seven isoforms and the metabolic pathway of each of the probes used to monitor specific isoform activity are listed below.
CYP2D6: The 0-demethylation of dextromethorphan (5 μM). The reaction is monitored by high performance liquid chromatography (HPLC) using florescence detection.

[2] = target: T2, CYP2C9 (Homo sapiens, UniProt P11712); assay: Inhibition of CYP2C9 (7-hydroxylation of (S)-warfarin) in human liver microsomes; assay type: in vitro ADME; conditions: probe (S)-warfarin (7-hydroxylation), 4 μM, read-out: inhibitory activity toward CYP2C9
T2 construct: Human livers, HLM141, HLM143, and HLM144 were selected from the University of Washington Human Liver Bank for this study; Microsomes were prepared; tissue University of Washington Human Liver Bank HLM141, HLM143, HLM144; host or cells: human liver microsomes
Method: as §1
CYP2C9: The 7-hydroxylation of (S)-warfarin (4 μM). The reaction is monitored by quantitative GC/MS using 7-hydroxywarfarin-(d5-phenyl) as the internal standard.

[3] = test system: STAM model of non-alcoholic steatohepatitis (NASH); conditions: for Fasting blood glucose (mean ± SD): Day 18, 8 hours of fasting; for Non-fasting blood glucose (mean ± SD): termination (Day 21); for Plasma GGT (mean ± SD) / Plasma creatinine (mean ± SD) / Plasma ALP (mean ± SD): mouse, in vivo, po
Method: Telmisartan (Micardis®) was purchased from Boehringer Ingelheim GmbH (Germany) and dissolved in pure water.
Telmisartan was administered at a dose of 10 mg/kg once daily.
Eight-hour fasting blood glucose was measured in whole blood using Life Check (EIDIA Co. Ltd., Japan). For plasma biochemistry, eight-hour fasting blood was collected in polypropylene tubes with anticoagulant (Novo-Heparin, Mochida Pharmaceutical, Japan) and centrifuged at 1,000×g for 15 minutes at 4° C. The supernatant was collected and stored at −80° C. until use. Plasma insulin levels were quantified by Ultra Sensitive Mouse Insulin ELISA kit (Morinaga Institute of Biological Science, Inc., Japan).
On the day of termination, non-fasting blood glucose was measured in whole blood using Life Check. For plasma biochemistry, non-fasting blood was collected in polypropylene tubes with anticoagulant (Novo-Heparin) and centrifuged at 1,000×g for 15 minutes at 4° C. The supernatant was collected and stored at −80° C. until use. Plasma ALT, AST, ALP, GGT, BUN, creatinine and total bilirubin levels were measured by FUJI DRI-CHEM 7000 (Fujifilm Corporation, Japan). Plasma ketone body levels were quantified by EnzyChrom™ Ketone Body Assay Kit (BioAssay Systems, USA).
Liver samples were homogenized in chloroform-methanol (2:1, v/v) and incubated overnight at room temperature. After washing with chloroform-methanol-water (8:4:3, v/v/v), the extracts were evaporated to dryness, and dissolved in isopropanol. Liver triglyceride content was measured by Triglyceride E-test (Wako Pure Chemical Industries). […]
Statistical analyses were performed using Bonferroni Multiple Comparison Test on GraphPad Prism 6 (GraphPad Software Inc., USA). […] Results were expressed as mean±SD.
The viability, clinical signs and behavior were monitored daily. Body weight was recorded before the treatment. […] The animals were sacrificed by exsanguinations through direct cardiac puncture under isoflurane anesthesia (Pfizer Inc.) at 9 weeks of age.

[4] = test system: CYP1A2, CYP2A6, CYP2C9, CYP2C19, CYP2D6, CYP2E1, CYP3A4; assay: in vitro; conditions: human, microsomes
From the text: as §1, with “study. […] The actual concentrations used for each of the other probes are specified below.” for “study.”

[5] = gemcabene 300 and 900 mg QD with atorvastatin 80 mg QD
[6] = target: T3, CYP2E1 (Homo sapiens, UniProt P05181); assay: Inhibition of CYP2E1 (p-nitrocatechol from p-nitrophenol) in human liver microsomes; assay type: in vitro ADME; conditions: 1500 μM
T3 construct: Human livers, HLM141, HLM143, and HLM144 were selected from the University of Washington Human Liver Bank for this study; Microsomes were prepared; tissue University of Washington Human Liver Bank HLM141, HLM143, HLM144; host or cells: human liver microsomes
Method: as §1
CYP2E1: The formation of p-nitrocatechol from p-nitrophenol (40 μM). Amounts of product formed are monitored by HPLC.

[7] = Effect of gemcabene on simvastatin pharmacokinetics (active HMG-Co-A reductase inhibitor concentration); assay type: in vivo, human; conditions: simvastatin alone vs in combination with gemcabene
[8] = target: T4, CYP2A6 (Homo sapiens, UniProt P11509); assay: Inhibition of CYP2A6 (7-hydroxylation of coumarin) in human liver microsomes; assay type: in vitro ADME; conditions: probe coumarin (7-hydroxylation), 4 μM, read-out: inhibitory activity toward CYP2A6
T4 construct: Human livers, HLM141, HLM143, and HLM144 were selected from the University of Washington Human Liver Bank for this study; Microsomes were prepared; tissue University of Washington Human Liver Bank HLM141, HLM143, HLM144; host or cells: human liver microsomes
T4 sequence (P11509 1-494): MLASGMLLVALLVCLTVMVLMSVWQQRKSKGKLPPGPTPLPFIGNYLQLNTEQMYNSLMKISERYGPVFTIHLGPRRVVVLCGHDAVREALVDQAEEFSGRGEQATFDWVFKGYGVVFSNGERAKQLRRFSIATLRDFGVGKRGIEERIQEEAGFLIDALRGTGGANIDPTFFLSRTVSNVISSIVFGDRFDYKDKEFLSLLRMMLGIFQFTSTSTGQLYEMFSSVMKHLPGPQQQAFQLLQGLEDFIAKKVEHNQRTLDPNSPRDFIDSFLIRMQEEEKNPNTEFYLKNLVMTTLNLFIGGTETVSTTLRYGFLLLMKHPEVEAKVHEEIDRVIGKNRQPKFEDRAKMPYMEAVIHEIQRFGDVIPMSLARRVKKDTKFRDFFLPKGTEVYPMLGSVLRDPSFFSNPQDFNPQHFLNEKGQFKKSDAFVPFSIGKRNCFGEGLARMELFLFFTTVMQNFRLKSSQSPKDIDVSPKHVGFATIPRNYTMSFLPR
Method: as §1
CYP2A6: The 7-hydroxylation of coumarin (4 μM). The reaction is monitored by HPLC using florescence detection.

[9] = Musculoskeletal adverse events, study A4141001; assay type: in vivo, human
[10] = STAM NASH mice, 30 mg/kg PO QD, 30 mg/kg
[11] = STAM NASH mice, 100 mg/kg PO QD, 100 mg/kg
[12] = STAM NASH mice, 100 mg/kg PO QD, Day 21, 100 mg/kg
[13] = STAM NASH mice, 300 mg/kg PO QD, 300 mg/kg
[14] = A4141001, patient type IIa + IIb

T2 sequence (P11712 whole entry): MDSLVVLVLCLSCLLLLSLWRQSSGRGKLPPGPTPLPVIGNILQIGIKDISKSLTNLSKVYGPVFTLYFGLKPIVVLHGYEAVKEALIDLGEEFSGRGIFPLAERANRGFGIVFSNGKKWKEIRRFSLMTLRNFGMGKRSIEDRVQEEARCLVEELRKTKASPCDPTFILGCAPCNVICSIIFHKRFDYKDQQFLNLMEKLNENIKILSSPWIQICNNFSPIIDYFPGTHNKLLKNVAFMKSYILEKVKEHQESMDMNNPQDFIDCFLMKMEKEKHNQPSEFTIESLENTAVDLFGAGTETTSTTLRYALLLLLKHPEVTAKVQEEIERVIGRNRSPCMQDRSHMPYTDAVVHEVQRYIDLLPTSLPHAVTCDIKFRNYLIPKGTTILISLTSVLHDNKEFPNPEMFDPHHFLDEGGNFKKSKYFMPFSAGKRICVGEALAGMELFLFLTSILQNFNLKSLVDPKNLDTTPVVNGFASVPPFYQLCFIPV
T3 sequence (P05181 whole entry): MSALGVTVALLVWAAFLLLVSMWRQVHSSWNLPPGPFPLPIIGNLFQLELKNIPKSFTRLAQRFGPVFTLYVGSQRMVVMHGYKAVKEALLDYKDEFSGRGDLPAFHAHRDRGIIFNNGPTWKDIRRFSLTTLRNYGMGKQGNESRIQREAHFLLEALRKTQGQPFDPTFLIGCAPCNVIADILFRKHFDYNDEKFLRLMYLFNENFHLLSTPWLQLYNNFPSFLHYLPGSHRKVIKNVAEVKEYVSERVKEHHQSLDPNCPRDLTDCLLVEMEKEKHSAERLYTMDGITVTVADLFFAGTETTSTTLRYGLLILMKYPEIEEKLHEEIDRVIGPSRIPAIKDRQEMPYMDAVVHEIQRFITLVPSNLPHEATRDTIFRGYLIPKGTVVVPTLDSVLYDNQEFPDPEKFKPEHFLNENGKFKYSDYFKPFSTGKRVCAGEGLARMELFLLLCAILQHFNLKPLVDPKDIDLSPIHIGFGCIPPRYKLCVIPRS
T1 sequence (P10635 whole entry): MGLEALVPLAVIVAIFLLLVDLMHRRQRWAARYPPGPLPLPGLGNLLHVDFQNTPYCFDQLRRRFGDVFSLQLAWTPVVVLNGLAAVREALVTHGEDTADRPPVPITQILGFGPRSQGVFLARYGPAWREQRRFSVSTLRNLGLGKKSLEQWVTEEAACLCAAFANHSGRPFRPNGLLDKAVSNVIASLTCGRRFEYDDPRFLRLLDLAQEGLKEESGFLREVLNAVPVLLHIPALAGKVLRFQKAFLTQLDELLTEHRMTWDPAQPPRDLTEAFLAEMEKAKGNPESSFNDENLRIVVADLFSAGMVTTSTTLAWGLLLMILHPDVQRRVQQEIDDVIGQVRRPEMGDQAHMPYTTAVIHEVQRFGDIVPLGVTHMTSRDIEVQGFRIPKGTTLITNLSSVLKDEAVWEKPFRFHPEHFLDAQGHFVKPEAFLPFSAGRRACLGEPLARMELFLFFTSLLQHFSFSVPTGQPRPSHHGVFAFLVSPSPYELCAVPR

CC(C)(CCCCOCCCCC(C)(C)C(=O)O)C(=O)O [Gemcabene, 6,6′-oxybis(2,2-dimethylhexanoic acid)]
inhibition at 1500 µM [1]: 10 to 20% | inhibition at 1500 µM [2]: 10 to 20% | NAFLD Activity score, NAS (mean ± SD) ([3]; STAM NASH mice, 30 mg/kg PO QD 6-9 wks, 30 mg/kg): significant reduction | Fasting blood glucose (mean ± SD) [3, 10]: no significant differences | Liver triglyceride (mean ± SD) ([3]; STAM NASH mice, 30 mg/kg PO QD, Day 21, 30 mg/kg): no significant differences | Non-fasting blood glucose (mean ± SD) [3, 10]: no significant differences | Fasting blood glucose (mean ± SD) [3, 11]: no significant differences | Liver triglyceride (mean ± SD) [3, 12]: no significant differences | Plasma ALT (mean ± SD) [3, 12]: significant decrease | Non-fasting blood glucose (mean ± SD) [3, 11]: no significant differences | NAFLD Activity score, NAS (mean ± SD) ([3]; STAM NASH mice, 300 mg/kg PO QD 6-9 wks, 300 mg/kg): significant reduction | Fasting blood glucose (mean ± SD) [3, 13]: no significant differences | Liver triglyceride (mean ± SD) ([3]; STAM NASH mice, 300 mg/kg PO QD, Day 21, 300 mg/kg): no significant differences | Non-fasting blood glucose (mean ± SD) [3, 13]: no significant differences | fibrosis area compared with the Vehicle in NASH group ([3]; STAM NASH mice, all treatment groups (gemcabene 30, 100, 300 mg/kg; telmisartan 10 mg/kg)): significantly reduced | Plasma GGT (mean ± SD) ([3]; 30 mg/kg): 1 ± 0 U/L | Plasma creatinine (mean ± SD) ([3]; 30 mg/kg): 0.1 ± 0.0 mg/dL | Plasma ALP (mean ± SD) ([3]; 100 mg/kg): significant increases | Plasma GGT (mean ± SD) ([3]; 100 mg/kg): 1 ± 0 U/L | Plasma ALP (mean ± SD) ([3]; 300 mg/kg): significant increases | Plasma GGT (mean ± SD) ([3]; 300 mg/kg): 1 ± 0 U/L | Plasma creatinine (mean ± SD) ([3]; 300 mg/kg): significant increase | IC50 [4]: > 454 µg/mL | effect on atorvastatin pharmacokinetics (Cmax, tmax, AUC(0-24), t½, atorvastatin and metabolites) [5]: no clinically important effect | CYP2E1 activity enhanced [6]: about 20% | effect on active HMG-Co-A reductase inhibitor pharmacokinetics after simvastatin (80 mg) [7]: lowers Cmax but has no effect on AUC | inhibition at 1500 µM [8]: 10 to 20% | % = the percent of patients experiencing a musculoskeletal adverse event ([9]; A4141001, patient type IIa): 0.0% | No = the number of muscle skeletal adverse events ([9]; A4141001, patient type IIa): 0 | % = the percent of patients experiencing a musculoskeletal adverse event [9, 14]: 0.0% | No = the number of muscle skeletal adverse events [9, 14]: 0 | % = the percent of patients experiencing a musculoskeletal adverse event ([9]; A4141001, patient type IIb): 0.0% | No = the number of muscle skeletal adverse events ([9]; A4141001, patient type IIb): 0
